Here are results for 43 compounds from patent US12150995B2, “IRAK degraders and uses thereof” (Kymera Therapeutics, Inc., priority 2020, dated 2024).

SMILES strings stand for the structures.

In general, DC50 refers to the concentration giving 50% degradation. A high value points to degradation only at high concentration.

The test deals with T1, IRAK4 (Homo sapiens, UniProt Q9NWZ3).
T1 construct: endogenous in cells; host or cells: OCI-LY10
T1 sequence (Q9NWZ3 1-460): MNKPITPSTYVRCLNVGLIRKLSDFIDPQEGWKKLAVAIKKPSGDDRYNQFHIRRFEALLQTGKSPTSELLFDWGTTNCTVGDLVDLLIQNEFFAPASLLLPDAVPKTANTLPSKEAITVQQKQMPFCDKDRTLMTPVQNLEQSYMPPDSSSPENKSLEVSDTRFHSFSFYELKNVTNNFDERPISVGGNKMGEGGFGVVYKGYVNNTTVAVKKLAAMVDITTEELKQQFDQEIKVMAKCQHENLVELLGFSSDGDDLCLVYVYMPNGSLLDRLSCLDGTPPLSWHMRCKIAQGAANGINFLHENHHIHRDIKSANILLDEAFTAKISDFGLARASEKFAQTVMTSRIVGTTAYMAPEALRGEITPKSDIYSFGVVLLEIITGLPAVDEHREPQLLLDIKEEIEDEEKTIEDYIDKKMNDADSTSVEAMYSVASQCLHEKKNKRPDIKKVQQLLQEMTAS
Briefly: IRAK4 MSD Degradation in OCI-LY10. It counts as cell-based. Conditions: OCI-LY10 cells, Meso Scale Discovery, incubated 4 to 24 hours. An outline of the steps: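 IRAK4 degradation was quantified by Meso Scale electrochemiluminescence (anti-IRAK4 capture and detection antibodies) in lysates of treated OCI-LY10 cells. Compounds were dosed at 8 concentrations (1:3 dilutions, top 1 to 10 μM) for 4 to 24 h; DC50 derived by three-parameter logistic fitting.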

`O=C1CCN(c2cncc3c(C4CCN(C[C@H]5CC[C@H](n6cc7cc(NC(=O)c8cccc(C(F)(F)F)n8)ccc7n6)CC5)CC4)cccc23)C(=O)N1` [I-68]: the DC50 lay within 10 to 50 nM.

The compound `CC(C)(O)c1cc2nc([C@H]3CC[C@H](CN4CC5(CC(CCNc6cccc7c6C(=O)N(C6CCC(=O)NC6=O)C7=O)C5)C4)CC3)sc2cc1NC(=O)c1cncc(F)c1` (stereo partly shown) [I-478] had a DC50 of 10 to 50 nM.

Regarding `CC(C)Nc1cc(-n2ccc3cc(C#N)cnc32)ncc1C(=O)N[C@H]1CC[C@H](CN(C)C2CCN(c3cccc4c3n(C)c(=O)n4C3CCC(=O)NC3=O)CC2)CC1` (stereo partly shown) [I-118], the DC50 is under 10 nM.

Compound `CN(C[C@H]1CC[C@H](n2cc3cc(NC(=O)c4cncc(C#N)c4)c(N4C[C@H]5C[C@@H]4CO5)cc3n2)CC1)C1CCN(c2cccc3c2n(C)c(=O)n3C2CCC(=O)NC2=O)CC1` (stereo partly shown) [I-217] had a DC50 of over 200 nM.

Compound `COc1cc(NC(=O)c2cccc(C(F)(F)F)n2)cc2cn([C@H]3CC[C@H](CN4CCC(c5cccc6c5n(C)c(=O)n6C5CCC(=O)NC5=O)CC4)CC3)nc12` (stereo partly shown) [I-176] yielded a DC50 of under 10 nM.

In turn, `Cc1cccc(C(=O)Nc2cc3sc([C@H]4CC[C@H](C(=O)N5CCC6(CC5)CC(CCNc5cccc7c5C(=O)N(C5CCC(=O)NC5=O)C7=O)C6)CC4)nc3cc2C(C)(C)O)n1` (stereo partly shown) [I-474] registered a DC50 of over 200 nM.

Regarding `COc1cc2nn([C@H]3CC[C@H](CN4CCC(c5cccc6c5n(C)c(=O)n6C5CCC(=O)NC5=O)CC4)CC3)cc2cc1NC(=O)n1ccc2cccnc21` (stereo partly shown) [I-112], the 50% degradation concentration (DC50) was under 10 nM.

`COc1ccc2c(c1C1=CCN(C[C@H]3CC[C@H](n4cc5cc(NC(=O)c6cccc(C(F)(F)F)n6)ccc5n4)CC3)CC1)n(C)c(=O)n2C1CCC(=O)NC1=O` (stereo partly shown) [I-355] displayed a DC50 of under 10 nM.

In turn, `O=C1CCN(c2cncc3cc(C4CCN(C[C@H]5CC[C@H](c6nc7cnc(NC(=O)c8cccc(C(F)(F)F)n8)cc7s6)CC5)CC4)ccc23)C(=O)N1` [I-241] had a DC50 of over 200 nM.

As to `CN(C[C@H]1C[C@H](n2cc3cc(NC(=O)c4cccc(C(F)(F)F)n4)c(C(F)F)cc3n2)C1)C1CCN(c2cccc3c2n(C)c(=O)n3C2CCC(=O)NC2=O)CC1` (stereo partly shown) [I-139], the DC50 fell in the range of 10 to 50 nM.

In the case of `Cn1c(=O)n(C2CCC(=O)NC2=O)c2cccc(C3CCN(C(=O)[C@H]4CC[C@H](n5cc6cc(NC(=O)c7cccc(C(F)(F)F)n7)ncc6n5)CC4)CC3)c21` (stereo partly shown) [I-188], the DC50 was over 200 nM.

In turn, `COc1cc2nn([C@H]3C[C@H](CN4CCC(c5c(F)ccc6c5n(C)c(=O)n6C5CCC(=O)NC5=O)CC4)C3)cc2cc1NC(=O)c1cccc(C(F)(F)F)n1` (stereo partly shown) [I-141] returned a DC50 of 10 to 50 nM.

`COc1cc2nn([C@H]3CC[C@H](CN4CCN(c5cccc6c5n(C)c(=O)n6C5CCC(=O)NC5=O)CC4)CC3)cc2cc1NC(=O)c1cncc(C)c1` (stereo partly shown) [I-365] gave a DC50 of under 10 nM.

`CC(=O)c1cc2nn([C@H]3CC[C@H](CN4CCN(c5cccc6c5n(C)c(=O)n6C5CCC(=O)NC5=O)CC4)CC3)cc2cc1NC(=O)c1cccc(C(F)(F)F)n1` (stereo partly shown) [I-412] came in with a 50% degradation concentration (DC50) of under 10 nM.

On to `CN(C[C@H]1CC[C@H](n2cc3cc(NC(=O)c4cccc(C(F)(F)F)n4)ccc3n2)CC1)C1CCN(c2ccc3c(N4CCC(=O)NC4=O)cncc3c2)CC1` [I-319], for which the 50% degradation concentration (DC50) lay within 10 to 50 nM.

`COc1cc2nn([C@H]3CC[C@H](CN4CCC(c5cccc6c5n(C)c(=O)n6C5CCC(=O)NC5=O)CC4)CC3)cc2cc1NC(=O)c1cnc(C#N)c(Cl)c1` (stereo partly shown) [I-136] yielded a DC50 of over 200 nM.

`COC(=O)c1cc2nn([C@H]3CC[C@H](CN4CCN(c5cccc6c5n(C)c(=O)n6C5CCC(=O)NC5=O)CC4)CC3)cc2cc1NC(=O)c1cccc(C(F)(F)F)n1` (stereo partly shown) [I-405] had a DC50 of 10 to 50 nM.

The compound `CN(CCNc1cccc2c1C(=O)N(C1CCC(=O)NC1=O)C2=O)C(=O)[C@H]1CC[C@H](c2nc3cc(C(C)(C)O)c(NC(=O)c4cccc(C(F)(F)F)n4)cc3s2)CC1` (stereo partly shown) [I-488] registered a DC50 of 100 to 200 nM.

Regarding `O=C1CCN(c2cncc3c(C4CCN(C[C@H]5CC[C@H](n6cc7cc(NC(=O)c8cccc(C(F)(F)F)n8)c(C(F)F)cc7n6)CC5)CC4)cccc23)C(=O)N1` [I-293], the DC50 was under 10 nM.

Regarding `COc1cc2nn([C@H]3CC[C@H](CN4CCN(c5cccc6c(N7CCC(=O)N(C)C7=O)cncc56)CC4)CC3)cc2cc1NC(=O)c1cccc(C(F)(F)F)n1` [I-330], the DC50 is over 200 nM.

With `Cn1c(=O)n(C2CCC(=O)NC2=O)c2ccc(F)c(C3CCN(C[C@H]4CC[C@H](n5cc6cc(NC(=O)c7cccc(C(F)(F)F)n7)ccc6n5)CC4)CC3)c21` (stereo partly shown) [I-74], the DC50 lay in the range of 10 to 50 nM.

In turn, `CC(C)(O)c1cc2nc([C@H]3CC[C@H](C(=O)N4CCC5(CC4)CC(CCNc4cccc6c4C(=O)N(C4CCC(=O)NC4=O)C6=O)C5)CC3)sc2cc1NC(=O)c1cccc(C(F)(F)F)n1` (stereo partly shown) [I-486] displayed a DC50 of 100 to 200 nM.

As to `Cn1c(=O)n(C2CCC(=O)NC2=O)c2cccc(N3CCN(C[C@H]4CC[C@H](n5cc6cc(NC(=O)c7cccc(C(F)(F)F)n7)c(C7CC7)cc6n5)CC4)CC3)c21` (stereo partly shown) [I-296], the 50% degradation concentration (DC50) was in the range of 10 to 50 nM.

In turn, `CC(C)Nc1cc(-n2ccc3cc(C(F)(F)F)cnc32)ncc1C(=O)N[C@H]1CC[C@H](CN2CCC(c3cccc4c3n(C)c(=O)n4C3CCC(=O)NC3=O)CC2)CC1` (stereo partly shown) [I-368] displayed a DC50 of over 200 nM.

`COc1cc2nn([C@H]3CC[C@H](CN4CCC(c5ccc(F)c6c5n(C)c(=O)n6C5CCC(=O)NC5=O)CC4)CC3)cc2cc1NC(=O)c1cccc(C(F)(F)F)n1` (stereo partly shown) [I-51] returned a DC50 of under 10 nM.

Compound `O=C1CCN(c2cncc3c(C4CCN(C[C@H]5CC[C@H](c6nc7cnc(NC(=O)c8cccc(C(F)(F)F)n8)cc7s6)CC5)CC4)cccc23)C(=O)N1` [I-171] showed a DC50 of 10 to 50 nM.

As to `Cn1c(=O)n(C2CCC(=O)NC2=O)c2cccc(C3CCN(C[C@H]4CC[C@H](n5cc6cc(NC(=O)c7cncc(C(F)(F)F)n7)c(F)cc6n5)CC4)CC3)c21` (stereo partly shown) [I-45], the DC50 is under 10 nM.

`Cn1c(=O)n(C2CCC(=O)NC2=O)c2cccc(C3CCN(C[C@H]4CC[C@H](n5cc6cc(NC(=O)c7cnn8cc(C#N)cnc78)ccc6n5)CC4)CC3)c21` (stereo partly shown) [I-95] yielded a DC50 of under 10 nM.

The compound `COc1cc2nn([C@H]3CC[C@H](CN4C[C@H]5C[C@@H]4CN5c4cccc5c4n(C)c(=O)n5C4CCC(=O)NC4=O)CC3)cc2cc1NC(=O)c1cncc(C#N)c1` (stereo partly shown) [I-166] showed a DC50 of over 200 nM.

`COc1cc2nn([C@H]3CC[C@H](CN4CCC(c5ccc6c(c5)n(C)c(=O)n6C5CCC(=O)NC5=O)CC4)CC3)cc2cc1NC(=O)c1cncc(C#N)c1` (stereo partly shown) [I-169] had a DC50 of over 200 nM.

`Cn1c(=O)n(C2CCC(=O)NC2=O)c2cccc(C3CCN(C[C@H]4CC[C@H](n5cc6cc(NC(=O)c7cnn8cccnc78)c(F)cc6n5)CC4)CC3)c21` (stereo partly shown) [I-63] displayed a DC50 of under 10 nM.

In the case of `COc1cc2nn([C@H]3CC[C@H](CN4CCC5(CC4)CC(Nc4cccc6c4C(=O)N(C4CCC(=O)NC4=O)C6=O)C5)CC3)cc2cc1NC(=O)c1cnn2cccnc12` (stereo partly shown) [I-13], the DC50 is under 10 nM.

In turn, `Cc1cccc(C(=O)Nc2cc3sc([C@H]4CC[C@H](CN5C[C@H]6C[C@@H]5CN6CCNc5cccc6c5C(=O)N(C5CCC(=O)NC5=O)C6=O)CC4)nc3cc2C(C)(C)O)n1` (stereo partly shown) [I-475] returned a DC50 of under 10 nM.

As to `Cn1c(=O)n(C2CCC(=O)NC2=O)c2cccc(C3CCN(C[C@H]4CC[C@H](n5cc6cc(NC(=O)c7cccc(C(F)(F)F)n7)cc(F)c6n5)CC4)CC3)c21` (stereo partly shown) [I-240], the DC50 is under 10 nM.

For `CN(CCCNc1cccc2c1C(=O)N(C1CCC(=O)NC1=O)C2=O)C[C@H]1CC[C@H](c2nc3cc(C(C)(C)O)c(NC(=O)c4cccc(C(F)(F)F)n4)cc3s2)CC1` (stereo partly shown) [I-490], the DC50 is over 200 nM.

In the case of `COc1ccc2c(c1C1CCN(C[C@H]3C[C@H](n4cc5cc(NC(=O)c6cccc(C(F)(F)F)n6)ncc5n4)C3)CC1)n(C)c(=O)n2C1CCC(=O)NC1=O` (stereo partly shown) [I-421], the DC50 lay in the range of 50 to 100 nM.

Turning to `COc1cc2nn([C@H]3C[C@@H](CN4CC(c5cccc6c5n(C)c(=O)n6C5CCC(=O)NC5=O)C4)C3)cc2cc1NC(=O)c1cccc(C(F)(F)F)n1` (stereo partly shown) [I-50, N-[2-[3-[[3-[1-(2,6-dioxo-3-piperidyl)-3-methyl-2-oxo-benzimidazol-4-yl]azetidin-1-yl]methyl]cyclobutyl]-6-methoxy-indazol-5-yl]-6-(trifluoromethyl)pyridine-2-carboxamide], the DC50 was 10 to 50 nM.

As for `Cn1c(=O)n(C2CCC(=O)NC2=O)c2ccc(F)c(C3CCN(C[C@H]4C[C@H](n5cc6cc(NC(=O)c7cccc(C(F)(F)F)n7)ncc6n5)C4)CC3)c21` (stereo partly shown) [I-147], the DC50 lay in the range of 50 to 100 nM.

For `COc1cc2nn([C@H]3CC[C@H](CN4CCN(c5ccc6c(N7CCC(=O)NC7=O)cncc6c5)CC4)CC3)cc2cc1NC(=O)c1cccc(C(F)(F)F)n1` [I-208], the DC50 is under 10 nM.

Take `Cc1cc2nn([C@H]3CC[C@H](CN4CCN(c5cccc6c5n(C)c(=O)n6C5CCC(=O)N(C)C5=O)CC4)CC3)cc2cc1NC(=O)c1cccc(C(F)(F)F)n1` (stereo partly shown) [I-404]: the DC50 was over 200 nM.

As to `Cn1c(=O)n(C2CCC(=O)NC2=O)c2ccc(Cl)c(C3CCN(C[C@H]4C[C@H](n5cc6cc(NC(=O)c7cccc(C(F)(F)F)n7)c(Cl)cc6n5)C4)CC3)c21` (stereo partly shown) [I-144], the DC50 was 50 to 100 nM.

In turn, `Cc1cc2nn([C@H]3CC[C@H](CN4CCC(c5cccc6c5n(C)c(=O)n6C5CCC(=O)N(C)C5=O)CC4)CC3)cc2cc1NC(=O)c1cccc(C(F)(F)F)n1` (stereo partly shown) [I-403] gave a DC50 of over 200 nM.

For `CN(CCCCNc1cccc2c1C(=O)N(C1CCC(=O)NC1=O)C2=O)C[C@H]1CC[C@H](c2nc3cc(C(C)(C)O)c(NC(=O)c4cccc(C(F)(F)F)n4)cc3s2)CC1` (stereo partly shown) [I-447], the DC50 is under 10 nM.
